Assay results as given in PubChem BioAssay (NCI).
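All cell lines were grown in 96-well plates and treated with compound for 48 hours. At the TGI there is no net growth.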

What was measured:
Experiment in all cases: DTP human tumour cell line panel, 48 h
SK-OV-3 ovarian = tested on: SK-OV-3 ovarian
LOX IMVI melanoma = tested on: LOX IMVI melanoma
HCT-116 colon = tested on: HCT-116 colon
SK-MEL-5 melanoma = tested on: SK-MEL-5 melanoma
HT29 colon = tested on: HT29 colon
SF-268 CNS = tested on: SF-268 CNS
OVCAR-5 ovarian = tested on: OVCAR-5 ovarian
MALME-3M melanoma = tested on: MALME-3M melanoma
KM20L2 colon = tested on: KM20L2 colon
RXF 393 renal = tested on: RXF 393 renal
COLO 205 colon = tested on: COLO 205 colon
ACHN renal = tested on: ACHN renal
RPMI-8226 leukemia = tested on: RPMI-8226 leukemia
OVCAR-4 ovarian = tested on: OVCAR-4 ovarian
SF-295 CNS = tested on: SF-295 CNS
OVCAR-8 ovarian = tested on: OVCAR-8 ovarian
HCC-2998 colon = tested on: HCC-2998 colon
TK-10 renal = tested on: TK-10 renal
A549 NSCLC = tested on: A549 NSCLC
CCRF-CEM leukemia = tested on: CCRF-CEM leukemia
XF 498 CNS = tested on: XF 498 CNS
SNB-75 CNS = tested on: SNB-75 CNS
NCI-H522 lung = tested on: NCI-H522 lung
DLD-1 colon = tested on: DLD-1 colon
EKVX NSCLC = tested on: EKVX NSCLC
A498 renal = tested on: A498 renal
UACC-257 melanoma = tested on: UACC-257 melanoma
SNB-19 CNS = tested on: SNB-19 CNS
M14 melanoma = tested on: M14 melanoma
UACC-62 melanoma = tested on: UACC-62 melanoma
SR leukemia = tested on: SR leukemia
NCI-H460 lung = tested on: NCI-H460 lung
U251 CNS = tested on: U251 CNS
UO-31 renal = tested on: UO-31 renal
HOP-18 NSCLC = tested on: HOP-18 NSCLC
SK-MEL-28 melanoma = tested on: SK-MEL-28 melanoma
SF-539 CNS = tested on: SF-539 CNS
K-562 leukemia = tested on: K-562 leukemia
IGROV1 ovarian = tested on: IGROV1 ovarian
MOLT-4 leukemia = tested on: MOLT-4 leukemia
786-0 renal = tested on: 786-0 renal
NCI-H23 lung = tested on: NCI-H23 lung
SK-MEL-2 melanoma = tested on: SK-MEL-2 melanoma
LXFL 529 NSCLC = tested on: LXFL 529 NSCLC
HOP-92 NSCLC = tested on: HOP-92 NSCLC
HCT-15 colon = tested on: HCT-15 colon
CAKI-1 renal = tested on: CAKI-1 renal
HL-60(TB) leukemia = tested on: HL-60(TB) leukemia
SN12C renal = tested on: SN12C renal
KM12 colon = tested on: KM12 colon
SNB-78 CNS = tested on: SNB-78 CNS
DMS 273 small cell lung = tested on: DMS 273 small cell lung
HOP-62 NSCLC = tested on: HOP-62 NSCLC
OVCAR-3 ovarian = tested on: OVCAR-3 ovarian
NCI-H226 lung = tested on: NCI-H226 lung
SW-620 colon = tested on: SW-620 colon
M19-MEL melanoma = tested on: M19-MEL melanoma

Measured: TGI

O=C(NNc1ccccc1)/C(=C/c1ccc2c(c1)OCO2)NC(=O)c1ccccc1
not listed: SW-620 colon | M19-MEL melanoma
> 100 µM: all other assays above

CC1(c2ccc(Cl)cc2)C2C(=O)NC(=O)C1C(=O)NC2=O (configuration not stated)
not listed: HCT-116 colon | SR leukemia | U251 CNS | HOP-18 NSCLC | NCI-H226 lung
> 100 µM: all other assays above
